Laboratory results taken from ChEMBL document CHEMBL3243950, “New inhibitors of steroid 11beta-hydroxylase. Structure--activity relationship studies of metyrapone-like compounds” (J Med Chem, 1977).

Legend:
[1] = target: T1, Cytochrome P450 11B1, mitochondrial (Bos taurus, UniProt P15150); assay: Inhibition of bovine adrenal gland 11beta-hydroxylase assessed as inhibition of [14C]-deoxycorticosterone hydroxylation at 2 uM relative to metyrapone; details: cattle
T1 sequence (P15150 whole entry): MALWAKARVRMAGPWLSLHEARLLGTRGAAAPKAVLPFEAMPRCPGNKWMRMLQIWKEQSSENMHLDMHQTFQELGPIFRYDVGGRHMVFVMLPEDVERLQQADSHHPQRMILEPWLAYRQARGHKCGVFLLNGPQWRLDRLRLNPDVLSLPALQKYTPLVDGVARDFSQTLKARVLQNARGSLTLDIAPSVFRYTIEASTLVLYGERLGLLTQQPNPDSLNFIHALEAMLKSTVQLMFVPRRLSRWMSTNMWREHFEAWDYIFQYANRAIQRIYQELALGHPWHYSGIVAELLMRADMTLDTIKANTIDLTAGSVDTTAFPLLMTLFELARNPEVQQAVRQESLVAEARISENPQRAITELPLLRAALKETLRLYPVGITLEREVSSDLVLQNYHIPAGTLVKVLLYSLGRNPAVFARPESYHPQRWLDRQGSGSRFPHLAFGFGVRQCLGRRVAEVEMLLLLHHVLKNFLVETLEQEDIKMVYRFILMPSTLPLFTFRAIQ

[2] = target: T1, Cytochrome P450 11B1, mitochondrial; assay: Inhibition of bovine adrenal gland 11beta-hydroxylase assessed as inhibition of [14C]-deoxycorticosterone hydroxylation at 2 uM; details: cattle
[3] = target: T1, Cytochrome P450 11B1, mitochondrial; assay: Inhibition of bovine adrenal gland 11beta-hydroxylase assessed as amount of corticosterone production using 22 nmol [14C]-deoxycorticosterone measured per 5 mins at 2 nmol (reference value: 1.3 +/- 0.04 nmol); details: cattle
[4] = target: T1, Cytochrome P450 11B1, mitochondrial; assay: Inhibition of bovine adrenal gland 11beta-hydroxylase assessed as amount of corticosterone production using 11 nmol [14C]-deoxycorticosterone measured per 5 mins at 2 nmol; details: cattle
[5] = target: T1, Cytochrome P450 11B1, mitochondrial; assay: Inhibition of bovine adrenal gland 11beta-hydroxylase assessed as inhibition of [14C]-deoxycorticosterone hydroxylation
[6] = target: T1, Cytochrome P450 11B1, mitochondrial; assay: Inhibition of bovine adrenal gland 11beta-hydroxylase assessed as amount of corticosterone production using 11 nmol [14C]-deoxycorticosterone measured per 5 mins at 2 nmol (reference value: 1.3 +/- 0.04 nmol); details: cattle
[7] = target: T1, Cytochrome P450 11B1, mitochondrial; assay: Inhibition of bovine adrenal gland 11beta-hydroxylase assessed as amount of corticosterone production using 22 nmol [14C]-deoxycorticosterone measured per 5 mins at 2 nmol; details: cattle

Row | SMILES | Ratio [1] | inhibition at 2 µM [2] | further results
1 | OC(c1cccnc1)C(c1ccccc1)c1ccccc1 (stereo not drawn) | 0.25 | 17% | 
2 | O=C(c1ccccc1)C(c1ccccc1)c1cccnc1 (stereo not drawn) | 0.32 | 22% | 
3 | O=C(c1cccnc1)C(c1ccccc1)c1ccccc1 | 0.22 | 15% | 
4 | CC(C)(C(=O)c1cccnc1)c1cccnc1 [METYRAPONE] | 1 | 68% | Activity [3]: 0.74 nmol; inhibition (INH) [4]: 70%; Ki [5]: 580 nM; Activity [6]: 0.39 nmol; inhibition (INH) [7]: 68%
5 | CC(C)(c1cccnc1)C(O)c1cccnc1 (stereo not drawn) [METYRAPOL] | 0.65 | 44% | 
6 | CC(C(=O)c1ccccc1)c1cccnc1 (stereo not drawn) | 0.65 | 44% | 
7 | O=C(Cc1cccnc1)c1ccccc1 | 0.22 | 15% | 
8 | OC(c1ccccc1)C(c1ccccc1)c1cccnc1 (stereo not drawn) | 0.65 | 44% | 
9 | CC(C(=O)c1cccnc1)c1ccccc1 (stereo not drawn) | 0.19 | 13% | 
10 | O=C(Cc1ccccc1)c1cccnc1 | 0.13 | 9% | 
11 | OC(Cc1cccnc1)c1cccnc1 (racemic) | 0.1 | 7% | 
12 | O=C(c1cccnc1)C(c1ccccc1)c1cccnc1 (stereo not drawn) | 0.52 | 35% | 
13 | OC(c1cccnc1)C(c1ccccc1)c1cccnc1 (racemic) | 0.13 | 9% | 
14 | C[C@@H](c1cccnc1)[C@@H](O)c1cccnc1 (relative stereo) | 0.41 | 28% | 
